Results published in ChEMBL document CHEMBL1201862, “PubChem BioAssay data set” (2004).
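Grown in 96-well plates, cells were treated for 48 hours with each compound at five concentrations. Insufficient inhibition: endpoint recorded as highest concentration tested. Abbreviation: GI50, concentration required for 50% inhibition of growth.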 Active and inactive are the calls of the source. Cut-off read from the data, not from the text of the source: active = GI50 up to about 1.1 µM and inactive = higher.

Experiments:
Test in all cases: DTP human tumour cell line panel, 48 h
CAKI-1 = tested on: CAKI-1
NCI-H23 = tested on: NCI-H23
OVCAR-5 = tested on: OVCAR-5
LOX IMVI = tested on: LOX IMVI
NCI-H522 = tested on: NCI-H522
U-251 = tested on: U-251
SR = tested on: SR
UACC-257 = tested on: UACC-257
SF-295 = tested on: SF-295
ACHN = tested on: ACHN
COLO 205 = tested on: COLO 205
MOLT-4 = tested on: MOLT-4
SF-539 = tested on: SF-539
HOP-92 = tested on: HOP-92
NCI-H226 = tested on: NCI-H226
TK-10 = tested on: TK-10
SF-268 = tested on: SF-268
Malme-3M = tested on: Malme-3M

Measured: GI50

CNc1ccc(/C=C2\C=Cc3ccccc32)cc1
inactive: CAKI-1 30.1 µM | NCI-H23 16.7 µM | OVCAR-5 18.8 µM | LOX IMVI 11.5 µM | NCI-H522 10.8 µM | U-251 32.4 µM | SR 53.2 µM | UACC-257 23.4 µM | SF-295 31.3 µM | ACHN 20.3 µM | COLO 205 18.4 µM | MOLT-4 41.9 µM | SF-539 93.3 µM | HOP-92 19.1 µM | NCI-H226 25.1 µM | TK-10 23.9 µM | SF-268 5.55 µM

NNC(=S)N/N=C(\c1nc2ccc(Cl)cc2nc1O)C(O)c1cccc([N+](=O)[O-])c1 (stereo not given)
inactive: CAKI-1 > 74.1 µM | Malme-3M > 100 µM | NCI-H23 > 42.8 µM | OVCAR-5 > 100 µM | LOX IMVI > 40.5 µM | NCI-H522 > 100 µM | U-251 > 100 µM | SR 15.9 µM | UACC-257 > 100 µM | SF-295 > 63.7 µM | ACHN > 100 µM | COLO 205 > 42.7 µM | MOLT-4 > 100 µM | SF-539 > 31.8 µM | HOP-92 > 86.3 µM | NCI-H226 > 100 µM | TK-10 > 100 µM | SF-268 > 52.1 µM

CN(C)C(=S)/N=c1\ss/c(=N\C(=S)N(C)C)n1-c1ccc(Cl)cc1
inactive: CAKI-1 > 100 µM | NCI-H23 > 100 µM | OVCAR-5 > 100 µM | LOX IMVI > 100 µM | NCI-H522 87.9 µM | U-251 > 100 µM | SR > 100 µM | UACC-257 > 100 µM | SF-295 > 100 µM | ACHN > 100 µM | COLO 205 > 100 µM | MOLT-4 > 100 µM | SF-539 > 100 µM | HOP-92 > 100 µM | NCI-H226 > 100 µM | TK-10 > 100 µM | SF-268 > 100 µM

N#CCC(=O)N/N=C(\C(=O)Nc1ccc(Cl)c(Cl)c1)C1CN(c2ccccc2)N=C1N (stereo not given)
inactive: Malme-3M > 100 µM | NCI-H23 > 100 µM | OVCAR-5 > 100 µM | LOX IMVI > 100 µM | NCI-H522 > 100 µM | U-251 > 100 µM | SR > 100 µM | UACC-257 > 100 µM | SF-295 > 100 µM | ACHN > 100 µM | COLO 205 > 100 µM | MOLT-4 49.8 µM | SF-539 > 100 µM | HOP-92 > 100 µM | NCI-H226 > 100 µM | TK-10 > 100 µM | SF-268 > 100 µM

CC1=CC(=O)C(C)(C2=NC(C)(C)CO2)c2ccccc21 (stereo not given)
inactive: CAKI-1 > 100 µM | Malme-3M > 100 µM | NCI-H23 > 100 µM | NCI-H522 > 100 µM | U-251 > 100 µM | SR > 100 µM | UACC-257 > 100 µM | SF-295 > 100 µM | ACHN > 100 µM | COLO 205 > 100 µM | MOLT-4 > 100 µM | SF-539 > 100 µM | HOP-92 > 100 µM | NCI-H226 > 100 µM | TK-10 > 100 µM | SF-268 > 100 µM

Cc1ccccc1NC(=O)C(=O)C(C#N)c1ccccc1C (stereo not given)
inactive: CAKI-1 > 100 µM | Malme-3M > 100 µM | NCI-H23 > 100 µM | OVCAR-5 > 100 µM | LOX IMVI 22.5 µM | NCI-H522 59.3 µM | U-251 > 100 µM | SR > 100 µM | UACC-257 > 100 µM | SF-295 > 100 µM | ACHN > 100 µM | COLO 205 46.8 µM | MOLT-4 > 100 µM | SF-539 > 100 µM | HOP-92 > 100 µM | NCI-H226 > 100 µM | TK-10 > 100 µM | SF-268 > 100 µM

COC(=O)N/N=C(\c1nc2ccc(Cl)cc2nc1O)C(O)c1ccc([N+](=O)[O-])cc1 (stereo not given)
inactive: CAKI-1 > 100 µM | Malme-3M > 100 µM | NCI-H23 > 100 µM | OVCAR-5 > 100 µM | LOX IMVI > 100 µM | NCI-H522 > 100 µM | U-251 > 100 µM | SR 30.5 µM | UACC-257 > 100 µM | SF-295 > 100 µM | COLO 205 > 100 µM | MOLT-4 98.4 µM | SF-539 > 100 µM | HOP-92 > 100 µM | NCI-H226 > 100 µM | SF-268 > 100 µM

Cn1cc(C(=O)C2CCCCC2)ccc1=O
inactive: CAKI-1 > 100 µM | Malme-3M > 100 µM | NCI-H23 > 100 µM | OVCAR-5 > 100 µM | LOX IMVI > 100 µM | NCI-H522 > 100 µM | U-251 > 100 µM | SR > 100 µM | SF-295 > 100 µM | ACHN > 100 µM | COLO 205 > 100 µM | MOLT-4 > 100 µM | SF-539 > 100 µM | HOP-92 > 100 µM | NCI-H226 > 100 µM | TK-10 > 100 µM | SF-268 > 100 µM

O=S1OC2(c3ccccc3-c3ccccc32)c2ccccc21 (stereo not given)
inactive: Malme-3M > 100 µM | NCI-H23 > 100 µM | OVCAR-5 > 100 µM | LOX IMVI > 100 µM | NCI-H522 > 100 µM | U-251 > 100 µM | SR > 100 µM | UACC-257 > 100 µM | SF-295 > 100 µM | ACHN > 100 µM | COLO 205 > 100 µM | MOLT-4 52.4 µM | SF-539 > 100 µM | NCI-H226 > 100 µM | TK-10 > 100 µM

CCOC(=O)c1csc(CCCCCCc2nc(C(=O)OCC)cs2)n1
inactive: CAKI-1 > 88.7 µM | Malme-3M > 74.5 µM | NCI-H23 43.2 µM | OVCAR-5 > 100 µM | LOX IMVI 32.4 µM | NCI-H522 > 100 µM | U-251 24 µM | SR > 100 µM | UACC-257 34.8 µM | SF-295 52.2 µM | ACHN > 84.9 µM | COLO 205 > 52.6 µM | MOLT-4 > 75 µM | SF-539 > 58.3 µM | HOP-92 > 58.2 µM | NCI-H226 44.9 µM | TK-10 > 92.5 µM | SF-268 34 µM

C=CCn1c2c(sc1=S)C(S)NC=N2 (stereo not given)
inactive: CAKI-1 > 100 µM | Malme-3M 10.4 µM | NCI-H23 90.6 µM | OVCAR-5 > 100 µM | LOX IMVI > 100 µM | NCI-H522 34.8 µM | U-251 32.6 µM | SR 91.8 µM | UACC-257 71 µM | SF-295 61.2 µM | ACHN 71.3 µM | COLO 205 > 100 µM | MOLT-4 > 100 µM | SF-539 85.1 µM | HOP-92 16.8 µM | NCI-H226 > 100 µM | TK-10 > 100 µM | SF-268 4.65 µM

C=C1C(=O)OC2/C=C(\C=O)CC/C=C(\C)C(O)C[C@@H]12 (stereo not given in full)
inactive: CAKI-1 > 10 µM | Malme-3M 5.07 µM | NCI-H23 5.18 µM | OVCAR-5 23.6 µM | LOX IMVI 6.18 µM | NCI-H522 1.54 µM | U-251 18.8 µM | SR 2.8 µM | UACC-257 5.93 µM | SF-295 13.7 µM | ACHN 7.35 µM | COLO 205 3.94 µM | MOLT-4 2.77 µM | SF-539 14.2 µM | HOP-92 5.9 µM | NCI-H226 20.4 µM | TK-10 12.3 µM | SF-268 8.61 µM
